Data: PubChem BioAssay (NCI)
Values joined by “and” are separate entries in the source; they are usually repeats but may differ in a detail not shown here. Equal entries are not always repeated.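 Compound exposure: 48 hours, 5 concentrations, 96-well plates. Abbreviation: GI50, concentration required for 50% inhibition of growth. TGI denotes the concentration required for complete inhibition of growth.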

Legend:
Assay in all cases: NCI anticancer screen, dose series, 48 h
DU-145 prostate = test system: DU-145 prostate
SK-OV-3 ovarian = test system: SK-OV-3 ovarian
SW-620 colon = test system: SW-620 colon
U251 CNS = test system: U251 CNS
NCI-H460 lung = test system: NCI-H460 lung
UO-31 renal = test system: UO-31 renal
MOLT-4 leukemia = test system: MOLT-4 leukemia
CCRF-CEM leukemia = test system: CCRF-CEM leukemia
SF-268 CNS = test system: SF-268 CNS
MALME-3M melanoma = test system: MALME-3M melanoma

| SMILES | TGI (DU-145 prostate) [µM] | TGI (SK-OV-3 ovarian) | TGI (SW-620 colon) | TGI (U251 CNS) | TGI (NCI-H460 lung) | TGI (UO-31 renal) [µM] | TGI (MOLT-4 leukemia) | TGI (CCRF-CEM leukemia) | TGI (SF-268 CNS) | TGI (MALME-3M melanoma) | GI50 (MALME-3M melanoma) | GI50 (MOLT-4 leukemia) | GI50 (SW-620 colon) [µM] | GI50 (NCI-H460 lung) [µM] | GI50 (UO-31 renal) [nM] | GI50 (CCRF-CEM leukemia) [µM] |
| --- | --- | --- | --- | --- | --- | --- | --- | --- | --- | --- | --- | --- | --- | --- | --- | --- |
| CC(=O)/C=C/C=C(\C)CC/C=C(\C)CC(C)C | > 100 | > 100 µM | 35.3 µM | 87.7 µM | > 100 µM | > 100 | 41.9 µM | 37 µM | > 100 µM | – | – | – | – | – | – | – |
| O=c1[nH]c(=O)n(C2OC(COP(=O)(O)OP(=O)(O)O)C(O)C2O)cc1F (stereo not drawn) | – | 47.8 µM | > 50 µM | > 25.2 µM | 12.7 µM | 20.4 | > 50 µM | > 50 µM | > 50 µM | > 50 µM | – | – | – | – | – | – |
| CCOC(=O)C(C)(C)Oc1ccc2c(=O)cc(-c3ccccc3)oc2c1 | – | > 100 µM | 48.5 µM | 44.9 µM | > 100 µM | > 100 | 32.5 µM | 43.6 µM | 56.3 µM | 37.6 µM | – | – | – | – | – | – |
| CC1(O)C=CC2CCC1C2O (stereo not drawn) | – | > 100 µM | – | > 100 µM | > 100 µM | > 100 | > 100 µM | > 100 µM | 93.7 µM | > 100 µM | – | – | – | – | – | – |
| N#CCCC1C(C#N)C2CC1C1C3C=CC(C3)C21 (stereo not drawn) | > 100 | > 100 µM | > 100 µM | – | – | > 100 | > 100 µM | > 100 µM | > 100 µM | > 100 µM | – | – | – | – | – | – |
| O=C(/C=C/c1ccc(-c2ccccc2[N+](=O)[O-])o1)NCc1ccc(C(=O)NCCc2ccccc2)cc1 | > 100 | > 100 µM | > 100 µM | > 100 µM | > 100 µM | > 100 | > 100 µM | – | > 100 µM | > 100 µM | – | – | – | – | – | – |
| Cc1ccc(C(=O)N(C(C)C)C(C)C)cc1N=NN(C)C | > 100 | > 100 µM | > 100 µM | > 100 µM | > 100 µM | > 100 | > 100 µM | – | 98 µM | > 100 µM | – | – | – | – | – | – |
| O=C(c1ccc2ccccc2c1)C1S(=O)(=O)OCCOS1(=O)=O | > 100 | – | – | > 100 µM | > 100 µM | > 100 | > 100 µM | > 100 µM | – | > 100 µM | – | – | – | – | – | – |
| COc1ccc(/C=C/c2cc(O)cc(OC)c2)cc1 | > 100 | > 100 µM | > 100 µM | > 100 µM | > 100 µM | > 100 | > 100 µM | – | > 100 µM | > 100 µM | – | – | – | – | – | – |
| CN1CCn2c(Br)ccc2C1=O | – | – | > 100 µM | > 100 µM | > 100 µM | > 100 | > 100 µM | > 100 µM | > 100 µM | > 100 µM | – | – | – | – | – | – |
| COc1cc(C2C3=C(CCC3=O)Oc3cc4c(cc32)OCO4)cc(OC)c1OC (stereo not drawn) | – | > 100 µM | > 100 µM | > 100 µM | > 100 µM | > 100 | – | > 100 µM | – | > 100 µM | – | – | – | – | – | – |
| S=C(N/N=C\C=N/NC(=S)N1CCCCCC1)N1CCCCCC1 | > 86.2 | > 100 µM | > 100 µM | > 100 µM | > 100 µM | > 100 | > 100 µM | – | > 100 µM | > 93.7 µM | – | – | – | – | – | – |
| CC(C)CCC[C@@H](C)[C@H]1CC[C@H]2[C@@H]3CC=C4C[C@@H](OC(=O)c5cccc6c(=O)c7ccccc7[nH]c56)CC[C@]4(C)[C@H]3CC[C@]12C | – | > 75 µM | > 75 µM | > 75 µM | – | > 75 | > 75 µM | – | > 75 µM | > 75 µM | – | – | – | – | – | – |
| CC1(C)COC(c2cccc(C3=NC(C)(C)CO3)c2Br)=N1 | > 100 | – | > 100 µM | > 100 µM | > 100 µM | > 100 | > 100 µM | – | > 100 µM | > 100 µM | – | – | – | – | – | – |
| CC1(C)O[C@@H](CO)[C@H]([C@@]23OC[C@H]4OC(C)(C)OC4[C@@H]2OC(C)(C)O3)O1 (stereo partly drawn) | > 100 | > 100 µM | > 100 µM | > 100 µM | > 100 µM | > 100 | > 100 µM | – | > 100 µM | > 100 µM | – | – | – | – | – | – |
| Nc1ccc2c(c1)C(=O)c1ccccc1-2 | > 100 | – | > 100 µM | > 100 µM | > 100 µM | > 100 | 75.1 µM | > 100 µM | > 100 µM | > 100 µM | – | – | – | – | – | – |
| CN(C(=O)C1(C(=O)C=[N+]=[N-])CC1)c1ccccc1 | > 100 | – | > 100 µM | > 100 µM | > 100 µM | > 100 | > 100 µM | > 100 µM | > 100 µM | > 100 µM | – | – | – | – | – | – |
| CCOc1ccc2[nH]c3c(C)c4cc[n+](C)cc4c(C)c3c2c1 | – | 60.6 µM and 56.3 µM | 15.6 µM and > 83.8 µM | 1.08 µM and 1.15 µM | 11.5 µM and 12.6 µM | > 100 | 21.6 µM and > 56 µM | 23.7 µM and 37.3 µM | 0.605 µM and 1.18 µM | 3.18 µM and 4.52 µM | 417 nM and 1430 nM | 1110 nM and 2690 nM | – | – | – | – |
| Nc1nc(Cl)cc(N=Nc2ccccc2)n1 | > 100 | > 100 µM | > 100 µM | – | – | > 100 | > 100 µM | > 100 µM | > 100 µM | > 100 µM | – | – | – | – | – | – |
| OCC1OC(n2cnc3cccnc32)CC1O (stereo not drawn) | > 100 | – | > 100 µM | > 100 µM | > 100 µM | > 100 | > 100 µM | > 100 µM | > 100 µM | – | – | – | – | – | – | – |
| CC(C)(C)N=C1CC(C)(C)c2ccccc2C(=Nc2ccccc2)S1 | – | > 100 µM | > 100 µM | > 100 µM | > 100 µM | > 100 | 69.2 µM | > 100 µM | > 100 µM | 96.5 µM | – | – | – | – | – | – |
| OC(c1ccc(Cl)cc1)(c1ccc(Cl)cc1)C(O)(c1ccc(Cl)cc1)c1ccc(Cl)cc1 | – | – | > 100 µM | – | > 100 µM | > 100 | > 100 µM | > 100 µM | – | – | – | 3180 nM | 3.24 | 3.11 | 2890 | 3.41 |
| CN=C(Nn1cnnc1)OC | > 100 | > 100 µM | > 100 µM | > 100 µM | > 100 µM | > 100 | > 100 µM | > 100 µM | – | > 100 µM | – | – | – | – | – | – |
